Data as given in patent publication US12576127B2, “Fibroblast binding agents and use thereof” (Orionis Biosciences, Inc., priority 2018, dated 2026).

Tested on: B16BL6 cells
Assay: B16BL6 tumor model (Example 8)
Format: in vivo, mouse
Details: p.l. days 7-15, FIGS. 14A-B
Description: Mice were maintained in pathogen-free conditions in a temperature-controlled environment with 12/12 hour light/dark cycles and received food and water ad libitum. Female C57BL/6J mice (Charles River Laboratories, Saint-Germain sur l'Arbresle, France) were inoculated with B16BL6 or MC38 or Panc02 cells, at the age of 8 weeks, using a 30G insulin syringe, in 50 μl suspension, on the shaved flank of briefly sedated mice (using 4% isoflurane). B16BL6 cells are a murine melanoma cell line that are typically used as a model for human skin cancers with increased resistance to doxorubicin. MC38 cells are derived from a murine colon adenocarcinoma and are typically used as a model for human colon cancers. Panc02 cells are derived from a murine pancreatic ductal adenocarcinoma and are typically used as a model for human pancreatic cancers.
All tumor treatments were done perilesionally (p.l.), which is s.c. at the tumor border, starting at day 7 after tumor inoculation. Mice received FAP-AFN or FAP-WTmIFN treatments on days 7, 8, 9, 10, 12, 13, 14 and 15. Control mice were treated with PBS on the same days. FAP-AFN or FAP-VVTmIFN were given about […] (1.8 mg/kg). […]

## COc1cccc2c1C(=O)c1c(O)c3c(c(O)c1C2=O)C[C@@](O)(C(=O)CO)C[C@@H]3O[C@H]1C[C@H](N)[C@H](O)[C@H](C)O1 [doxorubicin]
  tumor growth: tumor stasis at best, but no tumor regression
